Measurements taken from US10487071B2, “Bis-triazole compounds with anti-biofilm and anti-corrosion properties” (Université de Toulon, priority 2015, dated 2019).
Where two headings read alike, the source gives them in different places.

Key:
Paracoccus sp. (4M6) [1] = test: Anti-adhesion test, strain 4M6; assay type: cell-based; details: Paracoccus; for activity at 200 µM: 15 h, read-out: % of adhesion at 200 μM, 4M6; for EC50: read-out: EC50 (effective concentration to inhibit 50% of the adhesion), 4M6
Procedure: (§1) The anti-adhesion bioassays and toxicity tests are adapted from those disclosed in M. Camps, J.-F. Briand, L. Guentas-Dombrowsky, G. Culioli, A. Bazire and Y. Blache, Mar. Poll.
(§2) Bacterial strains were grown on Väätänen nine-salts solution (VNSS). When the stationary phase was reached, the bacterial suspension was centrifuged. Cells were then diluted in sterile artificial sea water (ASW) and introduced in microtiter plates (sterile black PS; Nunc, Fisher Scientific, France) with the tested compound (at eight concentrations in three replicates) in the presence of three controls: (i) non-specific staining control, (ii) adhesion control, and (iii) positive control. The maximum percentage of solvent (DMSO 2%) used to dilute the tested compound was also tested in triplicate as additional control. After incubation during an optimized adhesion time (moderately 15 h), non-adhered bacteria were eliminated and adhered cells were quantified after SYTO 61 (1 μM) staining. A percentage of inhibition was calculated per well. A sigmoid dose-response curve was obtained by plotting the percentage of inhibition as a function of the log of tested compound concentration, after mean (n=3) and standard deviation (SD) calculation per triplicate for each concentration. EC50 values were then calculated for each compound.

[2] = test system: marine bacterial strains (TC14, TC8, 4M6, TC5 and TC11); test: Anti-adhesion test, summary over the strains; assay type: cell-based; details: for EC50 compared with TBTO/ZINEB: comparison with reference biocides
Procedure: as §2
(§3) In examples 64 and 65, the following marine bacterial strains are used.

[3] = Gravimetry (weight loss), corrosion inhibition; details: mild steel in 1N HCl
Procedure: The corrosion rates were determined by electrochemical impedance spectroscopy measurements and gravimetry.
Weight loss measurements were performed on 2.5×2.0×0.1 cm rectangular mild steel coupons. The mild steel coupons were immersed into non-de-aerated HCl 1N solution in absence and presence of different concentrations of compounds of general formula (I). After the elapsed time, the coupons were taken out, washed, dried and weighed accurately. Experiments were duplicated.
Weight loss experiments were done to confirm the corrosion inhibitive properties of AS164.
The inhibition efficiency, IE (%), was estimated from the weight loss experiments using the following equation:
[formula] wherein CR^o and CR are respectively the corrosion rate in the absence and presence of AS164.

[4] = test system: Pseudoalteromonas lipolytica (TC8); test: Anti-adhesion test, strain TC8; assay type: cell-based; details: Pseudoalteromonas lipolytica; for activity at 200 µM: 15 h, read-out: % of adhesion at 200 μM, TC8; for EC50: read-out: EC50 (effective concentration to inhibit 50% of the adhesion), TC8
Procedure: as §1, §2

[5] = test system: Pseudoalteromonas ulvae (TC14); test: Anti-adhesion test, strain TC14; assay type: cell-based; details: for activity at 200 µM / EC50: Pseudoalteromonas ulvae; for activity at 200 µM: 15 h; for EC50: read-out: EC50 (effective concentration to inhibit 50% of the adhesion)
Procedure: as §2
(§4) Pseudoalteromonas ulvae (TC14) was isolated in June 2010 in the Military Harbor of Toulon (Mediterranean Sea, France) as described in F. Brian-Jaisson, A. Ortalo-Magné, L. Guentas-Dombrowsky, F. Armougom, Y. Blache, M. Molmeret, Microb. Ecol., 2014, 68, 94-110.

Shewanella sp. (TC11) [6] = test: Anti-adhesion test, strain TC11; assay type: cell-based; details: for activity at 200 µM: 15 h; for EC50: read-out: EC50 (effective concentration to inhibit 50% of the adhesion), strain TC11
Procedure: as §2
(§5) Shewanella sp. (TC11) was isolated in June 2010 in the Military Harbor of Toulon (Mediterranean Sea, France) as described in F. Brian-Jaisson, A. Ortalo-Magné, L. Guentas-Dombrowsky, F. Armougom, Y. Blache, M. Molmeret, Microb. Ecol., 2014, 68, 94-110.

Polaribacter sp. (TC5) [7] = test: Anti-adhesion test, strain TC5; assay type: cell-based; details: for activity at 200 µM: 15 h; for EC50: read-out: EC50 (effective concentration to inhibit 50% of the adhesion)
Procedure: as §2
(§6) Polaribacter sp. (TC5) was isolated in June 2010 in the Military Harbor of Toulon (Mediterranean Sea, France) as described in F. Brian-Jaisson, A. Ortalo-Magné, L. Guentas-Dombrowsky, F. Armougom, Y. Blache, M. Molmeret, Microb. Ecol., 2014, 68, 94-110.

Shewanella sp. (TC11) [8] = test: Toxicity test, strain TC11; assay type: cell-based
From the text: as §5

Polaribacter sp. (TC5) [9] = test: Toxicity test, strain TC5; assay type: cell-based; details: for CC50: read-out: LC50 (necessary concentration to kill 50% of the bacteria)
From the text: as §6

[10] = test system: Pseudoalteromonas lipolytica (TC8); test: microbe, parasite or virus in culture; details: for CC50: Pseudoalteromonas lipolytica, read-out: LC50 (necessary concentration to kill 50% of the bacteria), TC8; for IS: LC50/EC50 (selectivity index), TC8: strain TC8
From the text: as §1
(§7) After growth on VNSS, bacterial strains were harvested during the exponential phase. The microtiter plates (sterile transparent PS; Nunc, Fisher Scientific) were filled as described in the Anti-adhesion test method using VNSS instead of ASW to allow bacterial growth. The growth was followed by measuring the turbidity (OD600 nm) every hour during 6 or 7 hours. Then, resazurin (50 μM) was added in all the wells, and fluorescence was measured after 2 h to quantify the percent of bacterial viability. The same methodology used with SYTO 61 was applied to calculate a percent of viability after resazurin staining.

Paracoccus sp. (4M6) [11] = test: microbe, parasite or virus in culture; details: for CC50: Paracoccus, read-out: LC50 (necessary concentration to kill 50% of the bacteria), 4M6; for IS: LC50/EC50 (selectivity index), 4M6: strain 4M6
From the text: as §1, §7

[12] = test system: marine bacterial strains (TC14, TC8, 4M6, TC5 and TC11); test: Toxicity test, summary over the strains; assay type: cell-based; details: comparison with reference biocides
From the text: as §3

[13] = test system: Pseudoalteromonas ulvae (TC14); test: Toxicity test, strain TC14; assay type: cell-based
From the text: as §4

[14] = read-out: inhibition of the adhesion of at least two marine bacterial strains
[15] = read-out: inhibition of the adhesion of at least four marine bacterial strains

Molecule `CN(C)CCOc1ccc(CCn2cc(COCc3cn(CCc4ccc(OCCN(C)C)c(Br)c4)nn3)nn2)cc1Br` [AS163, 2-(4-(2-(4-(((1-(4-(2-(dimethylamino)ethoxy)-3-bromophenethyl)-1H-1,2,3-triazol-4-yl)methoxy)methyl)-1H-1,2,3-triazol-1-yl)ethyl)-2-bromophenoxy)-N,N-dimethylethanamine] has an activity at 200 µM (Paracoccus sp. (4M6) [1]) of 40.4 ± 7.8%, an EC50 (Paracoccus sp. (4M6) [1]) of 146 ± 81.9 µM and an inhibition at 200 µM [2, 14] of no less than 65%. The IE % ([3]; 0.1 ppm) was 82.24%, the IE % ([3]; 0.3 ppm) was 89.36% and the IE % ([3]; 0.5 ppm) was 94.54%. The IE % ([3]; 2 ppm) was 96.52%, the IE % ([3]; 10 ppm) was 97.07% and the activity at 200 µM [4] was 34.6 ± 5.1%. For the same molecule, the EC50 [4] was 102 ± 46.2 µM, the activity at 200 µM ([5]; 200 μM) was 34.8 ± 2.7% and the EC50 [5] was 91.8 ± 17.9 µM.
For `CN(C)CCOc1ccc(CCn2cc(-c3ccc(-c4cn(CCc5ccc(OCCN(C)C)c(Br)c5)nn4)cc3)nn2)cc1Br` [AS162, 2-(4-(2-(4-(4-(1-(4-(2-(dimethylamino)ethoxy)-3-bromophenethyl)-1H-1,2,3-triazol-4-yl)phenyl)-1H-1,2,3-triazol-1-yl)ethyl)-2-bromophenoxy)-N,N-dimethylethanamine], the activity at 200 µM (Paracoccus sp. (4M6) [1]) was 10.9 ± 8.1%, the EC50 (Paracoccus sp. (4M6) [1]) was 5.1 ± 1.04 µM and the “EC50 compared with TBTO/ZINEB” value [2] was “comparable to that of TBTO and lower than that of ZINEB”. The inhibition at 200 µM [2, 15] was no less than 85%, the inhibition at 200 µM [2, 14] was no less than 65% and the activity at 200 µM (Shewanella sp. (TC11) [6]; read-out: % of adhesion at 200 μM, TC11) was 4.3 ± 7.5%. The EC50 (Shewanella sp. (TC11) [6]) was 12.6 ± 5.1 µM, the IE % ([3]; 0.1 ppm) was 48.81% and the IE % ([3]; 0.3 ppm) was 93.35%. For the same molecule, the IE % ([3]; 0.5 ppm) was 92.92%, the IE % ([3]; 2 ppm) was 97.73% and the IE % ([3]; 10 ppm) was 97.30%. For the same molecule, the activity at 200 µM (Polaribacter sp. (TC5) [7]) was 21.5 ± 6.6%, the EC50 (Polaribacter sp. (TC5) [7]) was 15.5 ± 0.1 µM and the “IS: LC50/EC50 (selectivity index), TC11” value (Shewanella sp. (TC11) [8]) was 26.5. For the same molecule, the “LC50 (necessary concentration to kill 50% of the bacteria), TC11” value (Shewanella sp. (TC11) [8]) was 334.3 µM, the activity at 200 µM [4] was 14% and the EC50 [4] was 5.1 ± 1 µM. The “IS: LC50/EC50 (selectivity index), TC5” value (Polaribacter sp. (TC5) [9]) was 24.6, the CC50 (Polaribacter sp. (TC5) [9]) was 382 µM and the “inhibition of the adhesion of bacterial strain TC14” value ([5]; 200 μM) was “totally inhibit”. For the same molecule, the activity at 200 µM ([5]; 200 μM) was 0%, the EC50 [5] was 0.97 ± 0.8 µM and the CC50 [10] was 66.1 µM. The “IS: LC50/EC50 (selectivity index), TC8” value [10] was 12.9, the CC50 (Paracoccus sp. (4M6) [11]) was 97.6 µM and the “IS: LC50/EC50 (selectivity index), 4M6” value (Paracoccus sp. (4M6) [11]) was 19.2. For the same molecule, the “toxicity by LC50 values compared with TBTO/ZINEB” value [12] was “less toxic than TBTO and ZINEB”, the “IS: LC50/EC50 (selectivity index), TC14” value [13] was 265.7 and the “LC50 (necessary concentration to kill 50% of the bacteria), TC14” value [13] was 257.7 µM.
With `Oc1ccc(CCn2cc(-c3ccc(-c4cn(CCc5ccc(O)c(I)c5)nn4)cc3)nn2)cc1I` [SA43, 1,4 bis (1-(3-iodo-4-hydroxyphenethyl)-1H-1,2,3-triazol-4-yl) benzene] the activity at 200 µM (Paracoccus sp. (4M6) [1]) was 13.6 ± 8.9%, the EC50 (Paracoccus sp. (4M6) [1]) was 53.8 ± 50.9 µM and the “EC50 compared with TBTO/ZINEB” value [2] was “comparable to that of ZINEB”. For the same molecule, the inhibition at 200 µM [2, 15] was no less than 85%, the inhibition at 200 µM [2, 14] was no less than 65% and the activity at 200 µM (Shewanella sp. (TC11) [6]; 200 μM, strain TC11, read-out: % of adhesion at 200 μM, TC11) was 4.6 ± 0.1%. The EC50 (Shewanella sp. (TC11) [6]) was 1.1 ± 0.6 µM, the activity at 200 µM (Polaribacter sp. (TC5) [7]) was 23.8 ± 0.1% and the EC50 (Polaribacter sp. (TC5) [7]) was 58 ± 1.61 µM. The “IS: LC50/EC50 (selectivity index), TC11” value (Shewanella sp. (TC11) [8]) was 80.4, the “LC50 (necessary concentration to kill 50% of the bacteria), TC11” value (Shewanella sp. (TC11) [8]) was 88.4 µM and the activity at 200 µM [4] was 10.5 ± 12%. For the same molecule, the EC50 [4] was 30.3 ± 31.3 µM, the “IS: LC50/EC50 (selectivity index), TC5” value (Polaribacter sp. (TC5) [9]) was 5.5 and the CC50 (Polaribacter sp. (TC5) [9]) was 320 µM. The activity at 200 µM ([5]; 200 μM) was 6.8 ± 1.2%, the EC50 [5] was 20.7 ± 5.2 µM and the CC50 [10] was 270 µM. For the same molecule, the “IS: LC50/EC50 (selectivity index), TC8” value [10] was 8.9, the CC50 (Paracoccus sp. (4M6) [11]) was 352 µM and the “IS: LC50/EC50 (selectivity index), 4M6” value (Paracoccus sp. (4M6) [11]) was 6.5. The “toxicity by LC50 values compared with TBTO/ZINEB” value [12] was “less toxic than ZINEB”, the “IS: LC50/EC50 (selectivity index), TC14” value [13] was 11.4 and the “LC50 (necessary concentration to kill 50% of the bacteria), TC14” value [13] was 236.9 µM.
Molecule `Oc1ccc(CCn2cc(CNCc3cn(CCc4ccc(O)c(Br)c4)nn3)nn2)cc1Br` [NT27] has an activity at 200 µM (Paracoccus sp. (4M6) [1]) of 27.8 ± 16.3%, an EC50 (Paracoccus sp. (4M6) [1]) of 88.3 ± 46.2 µM and an inhibition at 200 µM [2, 14] of no less than 65%. For the same molecule, the activity at 200 µM [4] was 28.9 ± 17%, the EC50 [4] was 80.3 ± 18.9 µM and the activity at 200 µM ([5]; 200 μM) was 29.3 ± 7.5%. For the same molecule, the EC50 [5] was 59.9 ± 27.2 µM.
